The values below come from patent publication US20160228446A1, “Combination Drug Therapy” (GLAXOSMITHKLINE LLC, priority 2013, published 2016).

One assay deals with LNCaP cells. As to the kind of experiment: Luminescent caspase 3/7 assay. The class given is cell-based. Particulars: single agent 5 uM, five days, normalized to ATP signal.
In assay [1] the test system is LNCaP prostate cancer cells. The assay is described as follows: Cell proliferation assay (CellTiter-Glo, total cellular ATP). Type of assay: cell-based. Particulars: single agent; charcoal-stripped serum, 0.1 nM R1881, 7 days; percentage of DMSO-treated control. For orientation: Cellular ATP, detected with luciferase, serves as a proxy for viable cell number.
Method: Cells were grown in charcoal-stripped serum to deplete potential androgen from serum. Under these conditions, cell growth is dependent on exogenous androgen (e.g., R1881).
Androgen-dependent prostate cancer cell line, LNCaP, were grown in RPMI 1640 culture medium supplemented with 10% charcoal-stripped fetal bovine serum for 24 hours in 96-well tissue culture plates at a density of 1,000 cells per well. Cells were treated with various concentrations of compounds A or B alone and in combination in the presence of synthetic androgen (R1881, Sigma-Aldrich, St. Louis, Mo.). After 7 days, total cellular ATP was measured using the CellTiter-Glo Luminescent Cell Viability Assay (Promega, Madison, Wis.) on an EnVision plate reader. Background counts from wells containing no cells were subtracted and the data is presented as a percentage of the DMSO-treated control cells.
Another assay deals with phospho-S6. As to the kind of experiment: Immunoblot assay, phospho-S6. The class given is cell-based. Particulars: LNCaP cells, Compound B 3 or 10 uM alone or with compound A 3 uM, 0.1 nM R1881, six hours. (In general: Immunoblotting shows a protein as a band on a membrane.)
For a further assay, the system named is phospho-AKT. The assay is described as follows: Immunoblot assay, AKT phosphorylation. The class given is cell-based. Particulars: LNCaP cells, Compound B 3 or 10 uM, 0.1 nM R1881, six hours. The protocol: LNCaP cells were treated with Compound B (3 or 10 uM) alone or in presence of compound A (3 uM), all in presence of 0.1 nM synthetic androgen (R1881).
LNCaP cells were grown in RPMI 1640 culture medium supplemented with 10% charcoal-stripped fetal bovine serum for 48 hours in 6-well tissue culture plates at a density of 500,000 cells per well. Cells were treated with the indicated compounds for six hours, washed with PBS, and whole cell lysates were prepared in RIPA buffer (Teknova, Hollister, Calif.). Cell lysates were clarified by centrifugation at 20,000 relative centrifugal force, 4° C., and protein was quantified using the BCA Protein Assay Kit (Pierce, Rockford, Ill.). Equal amounts of protein lysates were separated by SDS-PAGE using a 4-12% Bis-Tris polyacrylamide gel (Life Technologies) and transferred to a nitrocellulose membrane and incubated with antibodies against total and phospho-AKT, phospho-PRAS40, total and phospho-S6, androgen receptor, and FKBP5. Following incubation with primary antibody, blots were washed and incubated with IRDye-800 anti-mouse or IRDye-680 anti-rabbit antibodies for 1 h. Following thorough washing, blots were analyzed using an infrared imaging system (LI-COR).

The subject of assay [2] is prostate cancer xenograft models. As to conditions: in vivo; cited from earlier work.
Another assay addresses androgen receptor (Homo sapiens, UniProt P10275). Particulars: cited from earlier work.

Structures are written as SMILES.

Sequence of androgen receptor (P10275 whole entry, species assumed): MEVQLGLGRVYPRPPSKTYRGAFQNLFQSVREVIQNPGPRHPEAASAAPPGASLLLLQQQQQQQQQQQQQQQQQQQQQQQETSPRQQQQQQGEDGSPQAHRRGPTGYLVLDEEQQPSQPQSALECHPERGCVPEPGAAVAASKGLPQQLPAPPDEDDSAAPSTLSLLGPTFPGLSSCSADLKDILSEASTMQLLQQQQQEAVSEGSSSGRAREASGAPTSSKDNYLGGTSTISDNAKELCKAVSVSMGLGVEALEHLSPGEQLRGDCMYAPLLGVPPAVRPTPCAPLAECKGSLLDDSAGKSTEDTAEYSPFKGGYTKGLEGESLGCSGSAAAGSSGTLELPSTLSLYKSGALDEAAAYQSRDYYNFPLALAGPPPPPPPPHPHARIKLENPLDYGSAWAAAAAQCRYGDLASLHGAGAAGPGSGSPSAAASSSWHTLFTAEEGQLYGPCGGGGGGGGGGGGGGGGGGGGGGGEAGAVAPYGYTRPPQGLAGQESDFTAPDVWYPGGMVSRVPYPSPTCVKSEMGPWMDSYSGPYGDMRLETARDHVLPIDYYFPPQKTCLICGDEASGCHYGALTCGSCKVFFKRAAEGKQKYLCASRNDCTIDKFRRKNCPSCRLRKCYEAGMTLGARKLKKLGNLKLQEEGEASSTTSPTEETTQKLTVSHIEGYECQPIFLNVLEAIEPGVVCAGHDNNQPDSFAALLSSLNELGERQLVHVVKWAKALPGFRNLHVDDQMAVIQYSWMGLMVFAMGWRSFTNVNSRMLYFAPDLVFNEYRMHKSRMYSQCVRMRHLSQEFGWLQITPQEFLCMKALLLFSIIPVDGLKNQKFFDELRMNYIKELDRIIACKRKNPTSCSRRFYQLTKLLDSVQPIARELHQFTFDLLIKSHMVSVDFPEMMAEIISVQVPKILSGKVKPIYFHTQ
Method for LNCaP cells: Caspase 3/7 activity was normalized and plotted as a percentage of the untreated control samples. Data for 2 independent experiments (N=1, N=2) is shown and represents mean±std dev from duplicate treatments. Tumor cells were seeded in 96-well white tissue culture plates in 100 μL growth media (media with 10% FBS) or CSS media (media with 10% charcoal stripped fetal bovine serum). LNCaP cells were seeded at a density of 1,000 cells per well. Approximately 24 hr after plating, duplicate or triplicate plates of cells were treated with indicated compounds for both luminescent caspase-3/7 and CTG readings. At the end of the 5 days of incubations, half of the plates were lysed and caspase-3/7 activity was measured using the Caspase-Glo® 3/7 Assay (Promega) according to the manufacturer's protocol. Caspase-Glo reagent was added to each plate, incubated for at least 45 minutes, and luminescent signal was read on the EnVision Multilabel Plate Reader with a 0.1 sec integration time. The remaining plates were lysed and ATP levels were measured using the CTG assay. The caspase-3/7 signal was normalized to the ATP signal. The normalized values were expressed as a percentage of the control wells.

As for `CNC(=O)c1ccc(N2C(=S)N(c3ccc(C#N)c(C(F)(F)F)c3)C(=O)C2(C)C)cc1F` [Compound A, 4-(3-(4-Cyano-3-(trifluoromethyl)phenyl)-5,5-dimethyl-4-oxo-2-thioxoimidazolidin-1-yl)-2-fluoro-N-methylbenzamide], the “induction of caspase 3/7 activity” value with LNCaP cells was “minimal induction”. Further, in assay [1], the LNCaP cell growth entry was “inhibited”.
Turning to `Cc1c(Cn2c(C)nc3c(C(=O)O)cc(N4CCOCC4)cc32)cccc1C(F)(F)F` [Compound B, 2-methyl-1-{[2-methyl-3-(trifluoromethyl)phenyl]methyl}-6-(4-morpholinyl)-1H-benzimidazole-4-carboxylic acid], the “induction of caspase 3/7 activity” value in the assay with LNCaP cells was “minimal induction”. In addition, the phospho-S6 result with phospho-S6 was “inhibition of phospho-S6”. The AKT phosphorylation result in the assay with phospho-AKT is on record as “inhibited AKT phosphorylation”. The LNCaP cell growth entry in assay [1] is reported as “inhibited the growth”.
Consider `CC(O)c1cc(C(=O)N[C@@H](C)Cn2ccc(-c3ccc(C#N)c(Cl)c3)n2)[nH]n1` (some centres unmarked) [ODM-201], for which the “anti-proliferative activity in prostate cancer xenograft models” value in assay [2] is listed as “anti-proliferative activity”. In addition, the “affinity for the androgen receptor” value on androgen receptor was “high affinity”.
